Laboratory results published in PubChem BioAssay (NCI).
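Following 48 hours of exposure in 96-well plates, responses at five concentrations were used to interpolate endpoints linearly. TGI denotes the concentration required for complete inhibition of growth.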

Assays:
Assay in all cases: NCI tumour cell line growth inhibition, 48 h
OVCAR-4 ovarian = test system: OVCAR-4 ovarian
HCC-2998 colon = test system: HCC-2998 colon
SF-539 CNS = test system: SF-539 CNS
SNB-78 CNS = test system: SNB-78 CNS
HOP-92 NSCLC = test system: HOP-92 NSCLC
SF-295 CNS = test system: SF-295 CNS
MALME-3M melanoma = test system: MALME-3M melanoma
SNB-19 CNS = test system: SNB-19 CNS
NCI/ADR-RES ovarian = test system: NCI/ADR-RES ovarian
XF 498 CNS = test system: XF 498 CNS
P388 leukemia = test system: P388 leukemia
KM20L2 colon = test system: KM20L2 colon
SN12C renal = test system: SN12C renal
OVCAR-5 ovarian = test system: OVCAR-5 ovarian
SNB-75 CNS = test system: SNB-75 CNS
MCF7 breast = test system: MCF7 breast
K-562 leukemia = test system: K-562 leukemia
EKVX NSCLC = test system: EKVX NSCLC
SN12K1 renal = test system: SN12K1 renal
P388/ADR leukemia = test system: P388/ADR leukemia
HOP-62 NSCLC = test system: HOP-62 NSCLC
KM12 colon = test system: KM12 colon
HCT-15 colon = test system: HCT-15 colon
SW-620 colon = test system: SW-620 colon
OVCAR-8 ovarian = test system: OVCAR-8 ovarian
SK-MEL-28 melanoma = test system: SK-MEL-28 melanoma
SK-OV-3 ovarian = test system: SK-OV-3 ovarian
DMS 114 small cell lung = test system: DMS 114 small cell lung
LOX IMVI melanoma = test system: LOX IMVI melanoma
NCI-H522 lung = test system: NCI-H522 lung
UACC-257 melanoma = test system: UACC-257 melanoma
M19-MEL melanoma = test system: M19-MEL melanoma
IGROV1 ovarian = test system: IGROV1 ovarian
CCRF-CEM leukemia = test system: CCRF-CEM leukemia
HT29 colon = test system: HT29 colon
A549 NSCLC = test system: A549 NSCLC
UO-31 renal = test system: UO-31 renal
OVCAR-3 ovarian = test system: OVCAR-3 ovarian
RPMI-8226 leukemia = test system: RPMI-8226 leukemia
A498 renal = test system: A498 renal
UACC-62 melanoma = test system: UACC-62 melanoma
COLO 205 colon = test system: COLO 205 colon
SF-268 CNS = test system: SF-268 CNS
SK-MEL-5 melanoma = test system: SK-MEL-5 melanoma
SK-MEL-2 melanoma = test system: SK-MEL-2 melanoma
MOLT-4 leukemia = test system: MOLT-4 leukemia
CAKI-1 renal = test system: CAKI-1 renal
DLD-1 colon = test system: DLD-1 colon
U251 CNS = test system: U251 CNS
NCI-H460 lung = test system: NCI-H460 lung
HCT-116 colon = test system: HCT-116 colon
NCI-H226 lung = test system: NCI-H226 lung
HL-60(TB) leukemia = test system: HL-60(TB) leukemia
HOP-18 NSCLC = test system: HOP-18 NSCLC
RXF 393 renal = test system: RXF 393 renal
DMS 273 small cell lung = test system: DMS 273 small cell lung
NCI-H23 lung = test system: NCI-H23 lung
RXF-631 renal = test system: RXF-631 renal
T-47D breast = test system: T-47D breast
MDA-MB-231 breast = test system: MDA-MB-231 breast
786-0 renal = test system: 786-0 renal
LXFL 529 NSCLC = test system: LXFL 529 NSCLC
DU-145 prostate = test system: DU-145 prostate
ACHN renal = test system: ACHN renal
SR leukemia = test system: SR leukemia
TK-10 renal = test system: TK-10 renal
BT-549 breast = test system: BT-549 breast
PC-3 prostate = test system: PC-3 prostate
HS 578T breast = test system: HS 578T breast
MDA-MB-435 = test system: MDA-MB-435
MDA-N = test system: MDA-N
M14 melanoma = test system: M14 melanoma

CC(C)[C@](O)(C(=O)OCC1CC[N+]2([O-])CC[C@@H](O)C12)[C@H](C)O (stereo partly specified)
TGI (OVCAR-4 ovarian): > 375 µM | TGI (HCC-2998 colon): > 375 µM | TGI (SF-539 CNS): > 375 µM | TGI (SNB-78 CNS): > 375 µM | TGI (HOP-92 NSCLC): > 375 µM | TGI (SF-295 CNS): > 375 µM | TGI (MALME-3M melanoma): > 256 µM | TGI (SNB-19 CNS): > 375 µM | TGI (NCI/ADR-RES ovarian): > 375 µM | TGI (XF 498 CNS): > 375 µM | TGI (P388 leukemia): > 375 µM | TGI (KM20L2 colon): > 375 µM | TGI (SN12C renal): > 375 µM | TGI (OVCAR-5 ovarian): > 375 µM | TGI (SNB-75 CNS): > 161 µM | TGI (MCF7 breast): > 375 µM | TGI (K-562 leukemia): > 375 µM | TGI (EKVX NSCLC): > 375 µM | TGI (SN12K1 renal): > 375 µM | TGI (P388/ADR leukemia): > 375 µM | TGI (HOP-62 NSCLC): > 375 µM | TGI (KM12 colon): > 375 µM | TGI (HCT-15 colon): > 375 µM | TGI (SW-620 colon): > 375 µM | TGI (OVCAR-8 ovarian): > 375 µM | TGI (SK-MEL-28 melanoma): > 375 µM | TGI (SK-OV-3 ovarian): > 375 µM | TGI (DMS 114 small cell lung): > 375 µM | TGI (LOX IMVI melanoma): > 203 µM | TGI (NCI-H522 lung): > 375 µM | TGI (UACC-257 melanoma): > 375 µM | TGI (M19-MEL melanoma): > 375 µM | TGI (IGROV1 ovarian): > 375 µM | TGI (CCRF-CEM leukemia): > 375 µM | TGI (HT29 colon): > 375 µM | TGI (A549 NSCLC): > 375 µM | TGI (UO-31 renal): > 375 µM | TGI (OVCAR-3 ovarian): > 375 µM | TGI (RPMI-8226 leukemia): > 375 µM | TGI (A498 renal): > 59.4 µM | TGI (UACC-62 melanoma): > 375 µM | TGI (COLO 205 colon): > 375 µM | TGI (SF-268 CNS): > 375 µM | TGI (SK-MEL-5 melanoma): > 375 µM | TGI (SK-MEL-2 melanoma): > 317 µM | TGI (MOLT-4 leukemia): > 375 µM | TGI (CAKI-1 renal): > 375 µM | TGI (DLD-1 colon): > 375 µM | TGI (U251 CNS): > 375 µM | TGI (NCI-H460 lung): > 159 µM | TGI (HCT-116 colon): > 256 µM | TGI (NCI-H226 lung): > 375 µM | TGI (HL-60(TB) leukemia): > 375 µM | TGI (HOP-18 NSCLC): > 375 µM | TGI (RXF 393 renal): > 375 µM | TGI (DMS 273 small cell lung): > 375 µM | TGI (NCI-H23 lung): > 375 µM

CS(=O)(=O)Nc1ccc(Nc2c3ccccc3nc3ccccc23)cc1
TGI (RXF-631 renal): 16.9 µM | TGI (T-47D breast): 21 µM | TGI (OVCAR-4 ovarian): 17.4 µM | TGI (MDA-MB-231 breast): 17.8 µM | TGI (HCC-2998 colon): 27 µM | TGI (SF-539 CNS): 20.2 µM | TGI (786-0 renal): 17.8 µM | TGI (SNB-78 CNS): 28.7 µM | TGI (HOP-92 NSCLC): 24.2 µM | TGI (SF-295 CNS): 14.6 µM | TGI (MALME-3M melanoma): 12.2 µM | TGI (SNB-19 CNS): 20.3 µM | TGI (LXFL 529 NSCLC): 18.7 µM | TGI (DU-145 prostate): > 23.1 µM | TGI (ACHN renal): 2.69 µM | TGI (NCI/ADR-RES ovarian): 41.8 µM | TGI (XF 498 CNS): 14.9 µM | TGI (KM20L2 colon): 18.8 µM | TGI (SR leukemia): 3.83 µM | TGI (SN12C renal): 17.1 µM | TGI (OVCAR-5 ovarian): 21 µM | TGI (SNB-75 CNS): 19.1 µM | TGI (MCF7 breast): 13 µM | TGI (K-562 leukemia): 21.2 µM | TGI (EKVX NSCLC): 29.6 µM | TGI (TK-10 renal): 9.52 µM | TGI (HOP-62 NSCLC): 13 µM | TGI (KM12 colon): 24.7 µM | TGI (HCT-15 colon): 23.5 µM | TGI (SW-620 colon): 19.9 µM | TGI (OVCAR-8 ovarian): 32.6 µM | TGI (SK-MEL-28 melanoma): 20.7 µM | TGI (BT-549 breast): 39.4 µM | TGI (SK-OV-3 ovarian): 16.1 µM | TGI (DMS 114 small cell lung): 17 µM | TGI (LOX IMVI melanoma): 13.9 µM | TGI (PC-3 prostate): 19.3 µM | TGI (NCI-H522 lung): 13.7 µM | TGI (UACC-257 melanoma): 8.44 µM | TGI (M19-MEL melanoma): 15 µM | TGI (HS 578T breast): 49.3 µM | TGI (IGROV1 ovarian): 18.9 µM | TGI (CCRF-CEM leukemia): 26.4 µM | TGI (HT29 colon): 20.5 µM | TGI (A549 NSCLC): 10.1 µM | TGI (UO-31 renal): 12.5 µM | TGI (OVCAR-3 ovarian): 18.7 µM | TGI (RPMI-8226 leukemia): 31 µM | TGI (MDA-MB-435): 33.7 µM | TGI (A498 renal): 16.3 µM | TGI (UACC-62 melanoma): 9 µM | TGI (COLO 205 colon): 21 µM | TGI (SF-268 CNS): 24.5 µM | TGI (SK-MEL-5 melanoma): 10.4 µM | TGI (SK-MEL-2 melanoma): 16.1 µM | TGI (MOLT-4 leukemia): 10.4 µM | TGI (CAKI-1 renal): 6.94 µM | TGI (DLD-1 colon): 24.7 µM | TGI (U251 CNS): 13.8 µM | TGI (MDA-N): 37 µM | TGI (NCI-H460 lung): 6.95 µM | TGI (HCT-116 colon): 15 µM | TGI (NCI-H226 lung): 7.14 µM | TGI (HL-60(TB) leukemia): 9.19 µM | TGI (HOP-18 NSCLC): 15 µM | TGI (RXF 393 renal): 23.3 µM | TGI (M14 melanoma): 17.5 µM | TGI (DMS 273 small cell lung): 14.3 µM | TGI (NCI-H23 lung): 25.8 µM

COc1ccc(C(c2c(O)c3ccccc3n(C)c2=O)c2c(O)c3ccccc3n(C)c2=O)cc1
TGI (RXF-631 renal): > 100 µM | TGI (OVCAR-4 ovarian): > 100 µM | TGI (HCC-2998 colon): > 100 µM | TGI (SF-539 CNS): 63.3 µM | TGI (786-0 renal): > 100 µM | TGI (SNB-78 CNS): 67.5 µM | TGI (HOP-92 NSCLC): > 100 µM | TGI (SF-295 CNS): > 100 µM | TGI (MALME-3M melanoma): > 100 µM | TGI (SNB-19 CNS): > 100 µM | TGI (LXFL 529 NSCLC): > 100 µM | TGI (ACHN renal): > 100 µM | TGI (XF 498 CNS): > 100 µM | TGI (KM20L2 colon): 45.7 µM | TGI (SR leukemia): > 100 µM | TGI (SN12C renal): > 100 µM | TGI (OVCAR-5 ovarian): > 100 µM | TGI (SNB-75 CNS): > 100 µM | TGI (K-562 leukemia): > 100 µM | TGI (EKVX NSCLC): > 100 µM | TGI (TK-10 renal): > 100 µM | TGI (KM12 colon): > 100 µM | TGI (SW-620 colon): > 100 µM | TGI (OVCAR-8 ovarian): > 100 µM | TGI (SK-MEL-28 melanoma): > 100 µM | TGI (SK-OV-3 ovarian): > 100 µM | TGI (DMS 114 small cell lung): > 100 µM | TGI (LOX IMVI melanoma): > 100 µM | TGI (NCI-H522 lung): 60 µM | TGI (UACC-257 melanoma): 46.4 µM | TGI (M19-MEL melanoma): > 100 µM | TGI (IGROV1 ovarian): > 100 µM | TGI (HT29 colon): > 100 µM | TGI (A549 NSCLC): > 100 µM | TGI (UO-31 renal): > 100 µM | TGI (OVCAR-3 ovarian): > 100 µM | TGI (RPMI-8226 leukemia): > 100 µM | TGI (UACC-62 melanoma): 98 µM | TGI (COLO 205 colon): > 100 µM | TGI (SF-268 CNS): > 100 µM | TGI (SK-MEL-5 melanoma): 54.6 µM | TGI (SK-MEL-2 melanoma): > 100 µM | TGI (MOLT-4 leukemia): > 100 µM | TGI (CAKI-1 renal): > 100 µM | TGI (DLD-1 colon): > 100 µM | TGI (U251 CNS): 44.2 µM | TGI (NCI-H460 lung): > 100 µM | TGI (HCT-116 colon): > 100 µM | TGI (NCI-H226 lung): 69.5 µM | TGI (HL-60(TB) leukemia): 90.7 µM | TGI (HOP-18 NSCLC): > 100 µM | TGI (RXF 393 renal): > 100 µM | TGI (M14 melanoma): > 100 µM | TGI (DMS 273 small cell lung): > 100 µM | TGI (NCI-H23 lung): 66.7 µM
